Assay [1] concerns yellow broilers. The conditions noted are these: 1-day-old yellow broilers, basal ration + 750 ppm, 20 days; for FCR (feed conversion ratio): ADFI/ADG.
Procedure: The experiment was conducted with single-factor randomized design. 720 1-day-old yellow broilers with a similar average body weight of 50 g, was randomly divided into 16 groups, each group consisting of 3 replicates and equal numbers of males and females, and each replicate consisting of 15 yellow broilers. The chicken house and tools were sterilized before the experiment. During the experiment, the broilers were kept in separate regions in the same chicken house under the same feeding and management conditions. Basal ration mainly consisted of corn and soybean meal. During the entire process, each treatment group was not given other antioxidants or growth promoters. […] The experiment lasted for 20 days. The broilers were given ad libitum access to food and water, and feeds were provided twice every day. At the day when the broilers were 21-day old (withdrawing feed for 12 hours, without withdrawing water), taking each replicate as one unit, body weights of the broilers were measured for calculating average daily feed intake (ADFI, g/d per broiler), average daily weigh gain (ADG, g/d per broiler), and feed conversion ratio (FCR). Feed conversion ratio (FCR)=Average daily feed intake/Average daily weight gain
The test system of assay [2] is Duroc×Landrace×Yorkshire cross-bred bacon-type pigs. The experiment in a line: Effect of the glutamine derivatives on the production performance of hogs (piglets), 28-day feeding. The conditions noted are these: 65-day-old pigs, basal ration + 800 ppm, 28 days; for FCR (feed conversion ratio): ADFI/ADG. Type of assay: in vivo. The source says: 480 65-day-old Duroc×Landrace×Yorkshire cross-bred bacon-type pigs with similar body weight, were randomly divided into 16 groups, with 3 replications per group and 10 pigs (half of male and female) per replication. The pig pen and tools were sterilized before the experiment. […] The experiment lasted for 28 days.

Assay [3] deals with Grass carps. The conditions noted are these: basal ration + 500 ppm, 8 weeks; for Feed coefficient: 580/(final−initial weight); for Weight gain rate: (final−initial)/initial×100; for Average final weight: restricted feeding.
Procedure: Grass carps were used in this experiment, which is conducted in an aquaculture region in the Guangzhou Insighter experiment yard. Healthy grass carps with the same size were reared in large netcages for 4 weeks before the experiment. The grass carps were kept in small floating netcages during the experiment. The small netcages and netcages for acclimatization were both placed in a 3500 m^2 pond in the experiment yard. […] In the experiment, 520 grass carps, which had been starved for 1 day, were randomly divided into 13 groups, each group consisting of 4 replicates, and each replicate consisting of 10 grass carps. The grass carps were weighed, taking each replicate as a whole. Then they were randomly released to 52 netcages in which they were fed with different feeds. […] Feed restriction had been adopted during the experiment, and the feeding amount was adjusted once a week. The treatment and control groups were fed twice (7:30 and 15:30) every day, with their feeding levels (based on initial body weights) being identical to be a total amount of 580 g. The experiment lasted for 8 weeks.
Calculation: Weight gain rate (%)=(Average final weight−Average initial weight)/Average initial weight×100 Feed coefficient=580/(Average final weight−Average initial weight)

Each structure is given as a SMILES string.

With `CCNC(=O)CCC(NC(=O)c1ccccc1)C(=O)O` (stereo not drawn) [Compound 1], in assay [1], the “ADFI (average daily feed intake)” value is 32.8 g/d per broiler, the “ADG (average daily weight gain)” value stood at 14.8 g/d per broiler and the “FCR (feed conversion ratio)” value was 2.22. In assay [2], the “ADFI (average daily feed intake)” value turned out to be 1657 g/d per piglet, the “ADG (average daily weight gain)” value turned out to be 661 g/d per piglet and the “FCR (feed conversion ratio)” value is listed as 2.506. Besides, in assay [3], the Feed coefficient is 1.79, the Weight gain rate stood at 72.41% and the Average final weight is recorded as 678 g.

Turning to `CCCCNC(=O)CCC(NC(=O)c1ccccc1)C(=O)O` (stereo not drawn) [Compound 2], in assay [1], the “ADFI (average daily feed intake)” value is given as 31.5 g/d per broiler, the “ADG (average daily weight gain)” value stood at 14.1 g/d per broiler and the “FCR (feed conversion ratio)” value amounted to 2.23. Besides, in assay [2], the “ADFI (average daily feed intake)” value is listed as 1648 g/d per piglet, the “ADG (average daily weight gain)” value was 651 g/d per piglet and the “FCR (feed conversion ratio)” value was 2.531. Also, in assay [3], the Feed coefficient turned out to be 1.78, the Weight gain rate is given as 70.47% and the Average final weight is 690 g.

For `O=C(NC(CCC(=O)N1CCCCC1)C(=O)O)c1ccccc1` (stereo not drawn) [Compound 5], in assay [1], the “ADFI (average daily feed intake)” value worked out at 30.9 g/d per broiler, the “ADG (average daily weight gain)” value is 13.7 g/d per broiler and the “FCR (feed conversion ratio)” value was 2.26. In assay [2], the “ADFI (average daily feed intake)” value worked out at 1633 g/d per piglet, the “ADG (average daily weight gain)” value was determined as 651 g/d per piglet and the “FCR (feed conversion ratio)” value was 2.510. Further, in assay [3], the Feed coefficient was 1.80, the Weight gain rate came to 71.27% and the Average final weight was found to be 678 g.

Consider `CCNC(=O)CCC(NC(=O)c1ccccc1)C(=O)OCC` (stereo not drawn) [Compound 6], for which, in assay [1], the “ADFI (average daily feed intake)” value is recorded as 31.2 g/d per broiler, the “ADG (average daily weight gain)” value is recorded as 14.2 g/d per broiler and the “FCR (feed conversion ratio)” value is 2.20. Also, in assay [2], the “ADFI (average daily feed intake)” value is given as 1615 g/d per piglet, the “ADG (average daily weight gain)” value was 646 g/d per piglet and the “FCR (feed conversion ratio)” value stood at 2.499. In assay [3], the Feed coefficient amounted to 1.77, the Weight gain rate is given as 72.84% and the Average final weight was 681 g.

In the case of `CCNC(=O)CCC(NC(=O)c1ccccc1)C(=O)[O-].CCNC(=O)CCC(NC(=O)c1ccccc1)C(=O)[O-].[Zn+2]` (stereo not drawn) [Compound 7], in assay [1], the “ADFI (average daily feed intake)” value stood at 31.7 g/d per broiler, the “ADG (average daily weight gain)” value came out at 14.5 g/d per broiler and the “FCR (feed conversion ratio)” value is 2.18. In assay [2], the “ADFI (average daily feed intake)” value amounted to 1674 g/d per piglet, the “ADG (average daily weight gain)” value is reported as 672 g/d per piglet and the “FCR (feed conversion ratio)” value came out at 2.491.

On to `CCNC(=O)CCC(NC(=O)c1ccccc1)C(=O)[O-].CCNC(=O)CCC(NC(=O)c1ccccc1)C(=O)[O-].[Cu+2]` (stereo not drawn) [Compound 8], for which, in assay [1], the “ADFI (average daily feed intake)” value came out at 30.6 g/d per broiler, the “ADG (average daily weight gain)” value stood at 14.2 g/d per broiler and the “FCR (feed conversion ratio)” value was determined as 2.16. Further, in assay [2], the “ADFI (average daily feed intake)” value is 1670 g/d per piglet, the “ADG (average daily weight gain)” value came to 671 g/d per piglet and the “FCR (feed conversion ratio)” value amounted to 2.488.

`CCNC(=O)CCC(NC(=O)c1ccccc1)C(=O)[O-].CCNC(=O)CCC(NC(=O)c1ccccc1)C(=O)[O-].[Ca+2]` (stereo not drawn) [Compound 9]: in assay [1], the “ADFI (average daily feed intake)” value was 32.5 g/d per broiler, the “ADG (average daily weight gain)” value is on record as 14.8 g/d per broiler and the “FCR (feed conversion ratio)” value is recorded as 2.20. Further, in assay [2], the “ADFI (average daily feed intake)” value is recorded as 1636 g/d per piglet, the “ADG (average daily weight gain)” value stood at 652 g/d per piglet and the “FCR (feed conversion ratio)” value is on record as 2.511.

Consider `CCNC(=O)CCC(NC(=O)c1ccc(Cl)cc1)C(=O)O` (stereo not drawn) [Compound 10], for which, in assay [1], the “ADFI (average daily feed intake)” value is on record as 32.2 g/d per broiler, the “ADG (average daily weight gain)” value is recorded as 14.5 g/d per broiler and the “FCR (feed conversion ratio)” value amounted to 2.22. Moreover, in assay [2], the “ADFI (average daily feed intake)” value is 1607 g/d per piglet, the “ADG (average daily weight gain)” value is recorded as 657 g/d per piglet and the “FCR (feed conversion ratio)” value is 2.508. In assay [3], the Feed coefficient is 1.81, the Weight gain rate is given as 72.34% and the Average final weight came to 669 g.

In the case of `CCNC(=O)CCC(NC(=O)c1ccc(C)cc1)C(=O)O` (stereo not drawn) [Compound 11], in assay [1], the “ADFI (average daily feed intake)” value turned out to be 30.8 g/d per broiler, the “ADG (average daily weight gain)” value stood at 13.8 g/d per broiler and the “FCR (feed conversion ratio)” value was found to be 2.24. In assay [2], the “ADFI (average daily feed intake)” value is 1592 g/d per piglet, the “ADG (average daily weight gain)” value came out at 634 g/d per piglet and the “FCR (feed conversion ratio)” value was determined as 2.512. For the same compound, in assay [3], the Feed coefficient turned out to be 1.80, the Weight gain rate worked out at 70.73% and the Average final weight is listed as 681 g.

As to `CCNC(=O)CCC(NC(=O)c1ccc(O)cc1)C(=O)O` (stereo not drawn) [Compound 12], in assay [1], the “ADFI (average daily feed intake)” value came to 31.6 g/d per broiler, the “ADG (average daily weight gain)” value is on record as 14.0 g/d per broiler and the “FCR (feed conversion ratio)” value came out at 2.26. Besides, in assay [2], the “ADFI (average daily feed intake)” value was 1599 g/d per piglet, the “ADG (average daily weight gain)” value was 633 g/d per piglet and the “FCR (feed conversion ratio)” value is on record as 2.528. In assay [3], the Feed coefficient came out at 1.79, the Weight gain rate was determined as 69.56% and the Average final weight was 692 g.

Consider `CCCC(=O)NC(CCC(=O)NCC)C(=O)O` (stereo not drawn) [Compound 13], for which, in assay [1], the “ADFI (average daily feed intake)” value came out at 31.3 g/d per broiler, the “ADG (average daily weight gain)” value was found to be 13.7 g/d per broiler and the “FCR (feed conversion ratio)” value turned out to be 2.28. Besides, in assay [2], the “ADFI (average daily feed intake)” value was 1609 g/d per piglet, the “ADG (average daily weight gain)” value turned out to be 627 g/d per piglet and the “FCR (feed conversion ratio)” value was determined as 2.566. Also, in assay [3], the Feed coefficient came to 1.83, the Weight gain rate is 70.42% and the Average final weight was found to be 687 g.

For the compound `CCCCCCCCCC(=O)NC(CCC(=O)NCC)C(=O)O` (stereo not drawn) [Compound 14], in assay [1], the “ADFI (average daily feed intake)” value turned out to be 31.8 g/d per broiler, the “ADG (average daily weight gain)” value is 14.0 g/d per broiler and the “FCR (feed conversion ratio)” value is reported as 2.27. Besides, in assay [2], the “ADFI (average daily feed intake)” value is reported as 1582 g/d per piglet, the “ADG (average daily weight gain)” value worked out at 621 g/d per piglet and the “FCR (feed conversion ratio)” value is 2.548. In assay [3], the Feed coefficient is reported as 1.81, the Weight gain rate is on record as 70.70% and the Average final weight was 678 g.

Consider `CCCCCCCCCCCCCC(=O)NC(CCC(=O)NCC)C(=O)O` (stereo not drawn) [Compound 15], for which, in assay [1], the “ADFI (average daily feed intake)” value came out at 32.4 g/d per broiler, the “ADG (average daily weight gain)” value was found to be 14.6 g/d per broiler and the “FCR (feed conversion ratio)” value is on record as 2.22. For the same compound, in assay [2], the “ADFI (average daily feed intake)” value is 1670 g/d per piglet, the “ADG (average daily weight gain)” value was found to be 650 g/d per piglet and the “FCR (feed conversion ratio)” value is 2.571. In assay [3], the Feed coefficient is 1.80, the Weight gain rate is 70.73% and the Average final weight was found to be 681 g.

The values are drawn from patent US11964929B2, “Application of glutamine derivative in preparation of animal feed additive” (WISORIG TE[…]. LIMITED, priority 2018, dated 2024).
